This passage reports IC50 results from US8431593B2, “Heteroaryl amide derivatives” (H. Lundbeck A/S, priority 2006, dated 2013).

The first assay deals with T1, P2X7 receptor (Homo sapiens, UniProt Q99572).
T1 construct: host or cells: SH-SY5Y
T1 sequence (Q99572 1-595): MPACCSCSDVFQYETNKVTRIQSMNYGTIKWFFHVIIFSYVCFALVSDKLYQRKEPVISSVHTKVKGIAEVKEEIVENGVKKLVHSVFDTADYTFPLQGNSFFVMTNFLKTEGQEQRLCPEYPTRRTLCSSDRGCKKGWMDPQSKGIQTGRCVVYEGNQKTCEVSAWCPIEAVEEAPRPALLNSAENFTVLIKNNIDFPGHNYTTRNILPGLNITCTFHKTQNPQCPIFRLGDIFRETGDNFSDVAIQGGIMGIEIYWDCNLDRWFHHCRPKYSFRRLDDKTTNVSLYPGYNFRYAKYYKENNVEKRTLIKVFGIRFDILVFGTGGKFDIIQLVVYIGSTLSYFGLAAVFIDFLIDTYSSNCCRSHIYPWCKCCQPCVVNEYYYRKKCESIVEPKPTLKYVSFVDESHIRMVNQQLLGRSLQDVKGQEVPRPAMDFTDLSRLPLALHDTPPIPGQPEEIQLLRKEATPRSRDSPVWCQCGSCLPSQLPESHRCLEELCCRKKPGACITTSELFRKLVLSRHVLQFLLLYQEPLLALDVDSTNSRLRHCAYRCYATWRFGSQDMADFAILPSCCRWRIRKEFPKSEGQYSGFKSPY
Description: P2X7 calcium mobilization assay, high throughput, antagonist activity (Example 4A). It counts as cell-based. The settings on record: 50% decrease in the fluorescence response of cells exposed to 80 μM 2′(3′)-O-(4-benzoyl-benzoyl)adenosine 5′-triphosphate; Example 4A; read-out: IC50. A digest of the protocol: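 100,000 cells/well, plated day -1. Dye 1 h → rinse → compound 1 h, RT → FLIPR^TETRA Ca2+ mobilization. Max RFU minus mean negative control (no agonist); mean agonist-well max as positive control.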
Turning to `O=C(CC12CC3CC(CC(C3)C1)C2)Nc1cccc2nc(C(=O)N3CCC(CCO)CC3)cn12` [Compound 423, 2-adamantan-1-yl-N-(2-{[4-(2-hydroxyethyl)piperidin-1-yl]carbonyl}imidazo [1,2-a]pyridin-5-yl)acetamide], the half-inhibitory concentration (IC50) is under 2 µM.
As for `Cc1cc(-c2cn3c(C(=O)NCC(CC(C)C)c4cccnc4)cccc3n2)n[nH]1` (centres unmarked) [Compound 595, 2-(5-methyl-1H-pyrazol-3-yl)-N-(4-methyl-2-pyridin-3-ylpentyl)imidazo[1,2-a]pyridine-5-carboxamide], the IC50 was under 2 µM.
Take `CC1(C)[C@H]2CC[C@@H](CNC(=O)c3cccc4nc(C(=O)N5CCOCC5)cn34)[C@@H]1C2` [Compound 464, N-{[(1S,2R,5S)-6,6-dimethylbicyclo[3.1.1]hept-2-yl]methyl}-2-(morpholin-4-ylcarbonyl)imidazo [1,2-a]pyridine-5-carboxamide]: the IC50 was under 2 µM.
As to `CC1(C)[C@@H]2CC[C@@H](CNC(=O)c3cccc4nc(CC(=O)N5CCOC(CN)C5)cn34)[C@H]1C2` (stereo partly drawn) [Compound 594, 2-{2-[2-(aminomethyl)morpholin-4-yl]-2-oxoethyl}-N-{[(1R,2R,5R)-6,6-dimethylbicyclo [3.1.1]hept-2-yl]methyl}imidazo[1,2-a]pyridine-5-carboxamide], the IC50 is under 2 µM.
With `COCCN(C)C(=O)c1cn2c(C(=O)NC[C@@H]3CC[C@H]4C[C@@H]3C4(C)C)cccc2n1` [Compound 466, 5-N-{[(1S,2R,5S)-6,6-dimethylbicyclo[3.1.1]hept-2-yl]methyl}-2-N-(2-methoxyethyl)-2-N-methylimidazo[1,2-a]pyridine-2,5-dicarboxamide], the IC50 is under 2 µM.
As to `CC1(C)C2CC[C@H](CNC(=O)c3cccc4nc(CC(=O)N5CCC[C@@H](N)C5)cn34)C1C2` (relative stereo) [Compound 550, rel-2-{2-[(3R)-3-aminopiperidin-1-yl]-2-oxoethyl}-N-{[(2S)-6,6-dimethylbicyclo[3.1.1]hept-2-yl]methyl}imidazo[1,2-a]pyridine-5-carboxamide], the IC50 is under 2 µM.
For the compound `COC[C@@H]1CCCN1C(=O)c1cn2c(C(=O)NC[C@@H]3CC[C@H]4C[C@@H]3C4(C)C)cccc2n1` [Compound 473, N-{[(1S,2R,5S)-6,6-dimethylbicyclo[3.1.1]hept-2-yl]methyl}-2-{[(2S)-2-(methoxymethyl)pyrrolidin-1-yl]carbonyl}imidazo[1,2-a]pyridine-5-carboxamide], the IC50 is under 2 µM.

The same assay, now with this note: 50% decrease in the fluorescence response of cells exposed to 80 μM of 2′(3′)-O-(4-benzoyl-benzoyl)adenosine 5′-triphosphate; Example 4A; read-out: IC50.
With `O=C(NCC12CC3CC(CC(C3)C1)C2)c1cccc2nc(Cn3cnnn3)cn12` [Compound 727, N-(adamantan-1-ylmethyl)-2-(1H-tetrazol-1-ylmethyl) imidazo[1,2-a]pyridine-5-carboxamide], the concentration for half-maximal inhibition (IC50) is under 2 µM.
On the same count and under the same terms, the result for `CN1C2CCC1CC(NC(=O)c1cn3c(C(=O)NCC45CC6CC(CC(C6)C4)C5)cccc3n1)C2` (centres unmarked) [Compound 667, 5-N-(adamantan-1-ylmethyl)-2-N-(8-methyl-8-azabicyclo[3.2.1]oct-3-yl)imidazo[1,2-a]pyridine-2,5-dicarboxamide] reads under 2 µM.

Staying with this assay, now noted: 50% decrease in the fluorescence response of cells exposed to 80 μM of 2′(3′)-O-(4-benzoyl-benzoyl)adenosine 5′-triphosphate; determined as in Example 4A; read-out: IC50.
For `O=C(NCC1(c2ccc(F)cc2)CCCCC1)c1cccc2nc(CC(Cc3ccccc3)C(=O)O)cn12` (centres unmarked) [Compound 1012, 2-benzyl-3-[5-({[1-(4-fluorophenyl)cyclohexyl]methyl}carbamoyl)imidazo[1,2-a]pyridin-2-yl]propanoic acid], the IC50 is under 2 µM.
Take `CCOC(=O)C(Cc1ccccc1)c1cn2c(C(=O)NCC3(c4ccc(Cl)cc4)CCCCC3)cccc2n1` (centres unmarked) [Compound 933, ethyl 2-[5-({[1-(4-chlorophenyl)cyclohexyl]methyl}carbamoyl)imidazo[1,2-a]pyridin-2-yl]-3-phenylpropanoate]: the IC50 is under 2 µM.
As for `O=C(O)Cc1cn2c(C(=O)NCC3(c4ccc(C(F)(F)F)cc4)CCCCC3)cccc2n1` [Compound 963, {5-[({1-[4-(trifluoromethyl)phenyl]cyclohexyl}methyl)carbamoyl]imidazo[1,2-a]pyridin-2-yl}acetic acid], the IC50 is under 2 µM.
On the same count and under the same terms, the figure for `CC1=NCCN1Cc1cn2c(C(=O)NCC(CC(C)C)c3ccc(Cl)cc3)cccc2n1` (centres unmarked) [Compound 923, N-[2-(4-chlorophenyl)-4-methylpentyl]-2-[(2-methyl-4,5-dihydro-1H-imidazol-1-yl)methyl]imidazo[1,2-a]pyridine-5-carboxamide] is under 2 µM.

The assay is the same for the next values; noted with them: SH-SY5Y cells; 50% decrease in fluorescence response to 80 μM BzATP; read-out: IC50.
For `O=C(NCC12CC3CC(CC(C3)C1)C2)c1cccc2nc(CN3CC[C@@H](NCCO)C3)cn12` [Compound 198, N-(adamantan-1-ylmethyl)-2-({(3R)-3-[(2-hydroxy-ethyl)amino]pyrrolidin-1-yl}methyl)imidazo[1,2-a]pyridine-5-carboxamide], the IC50 was under 2 µM.
Take `NC(=O)C1CCCN(C(=O)c2cn3c(C(=O)NCC45CC6CC(CC(C6)C4)C5)cccc3n2)C1` (centres unmarked) [Compound 103, N-(adamantan-1-ylmethyl)-2-[(3-carbamoylpiperidin-1-yl)carbonyl]imidazo[1,2-a]pyridine-5-carboxamide]: the IC50 is under 2 µM.
Regarding `N[C@H]1CCN(C(=O)Cc2cn3c(C(=O)NCC45CC6CC(CC(C6)C4)C5)cccc3n2)C1` (stereo in doubt) [Compound 144, N-(adamantan-1-ylmethyl)-2-[2-(3-aminopyrrolidin-1-yl)-2-oxoethyl]imidazo[1,2-a]pyridine-5-carboxamide], the IC50 was under 2 µM.
On to `O=C(NCC12CC3CC(CC(C3)C1)C2)c1cccc2nc(C(=O)N3CCC(N4CCOCC4)CC3)cn12` [Compound 101, N-(adamantan-1-ylmethyl)-2-[(4-morpholin-4-ylpiperidin-1-yl)carbonyl]imidazo[1,2-a]pyridine-5-carboxamide], for which the IC50 is under 2 µM.
As for `CC(=O)NC1CCN(C(=O)Cc2cn3c(C(=O)NCC45CC6CC(CC(C6)C4)C5)cccc3n2)C1` (centres unmarked) [Compound 170, 2-[2-(3-acetamidopyrrolidin-1-yl)-2-oxoethyl]-N-(adamantan-1-ylmethyl)imidazo[1,2-a]pyridine-5-carboxamide], the IC50 is under 2 µM.

The assay is the same for the next values; noted with them: fluorescence response of cells exposed to 80 μM 2′(3′)-O-(4-benzoyl-benzoyl)adenosine 5′-triphosphate; Example 4A; read-out: IC50.
In the case of `CCOC(=O)N1CCN(C(=O)c2cn3c(NC(=O)CC45CC6CC(CC(C6)C4)C5)cccc3n2)CC1` [Compound 356, ethyl 4-({5-[(adamantan-1-ylacetyl)amino]imidazo [1,2-a]pyridin-2-yl}carbonyl) piperazine-1-carboxylate], the IC50 is under 2 µM.
Consider `O=C(NCC12CC3CC(CC(C3)C1)C2)c1cccc2nc(CSc3nnc[nH]3)cn12` [Compound 293, N-(adamantan-1-ylmethyl)-2-[(4H-1,2,4-triazol-3-ylthio)methyl]imidazo [1,2-a]pyridine-5-carboxamide], for which the IC50 was under 2 µM.
On to `CC(=O)NC1CCN(C(=O)c2cn3c(NC(=O)CC45CC6CC(CC(C6)C4)C5)cccc3n2)CC1` [Compound 408, N-{2-[(4-acetamidopiperidin-1-yl)carbonyl]imidazo[1,2-a]pyridin-5-yl}-2-adamantan-1-ylacetamide], for which the IC50 is under 2 µM.
Still for that read-out and setting: the result for `O=C(CC12CC3CC(CC(C3)C1)C2)Nc1cccc2nc(C(=O)N3CCCCC3)cn12` [Compound 357, 2-adamantan-1-yl-N-[2-(piperidin-1-ylcarbonyl)imidazo [1,2-a]pyridin-5-yl]acetamide] reads under 2 µM; that for `CN(CC(=O)O)Cc1cn2c(C(=O)NCC34CC5CC(CC(C5)C3)C4)cccc2n1` [Compound 348, N-({5-[(adamantan-1-ylmethyl)carbamoyl]imidazo[1,2-a]pyridin-2-yl}methyl)-N-methylglycine], under 2 µM.
